Experiment: gradient 5% acetonitrile 3 min, to 50% in 2 min, to 85% in 15 min, held 3 min, 100 µL/min
Conditions: column: Zorbax Extend-C18 2.1 x 50 mm; eluents: water / acetonitrile, 0.1% formic acid
How it was run: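 Using water and acetonitrile that each contained 0.1% formic acid, mixtures of ~100 pure standards were separated at 100 μL/min on a Zorbax Extend-C18 column (2.1 × 50 mm, 1.8 μm). The HPLC fed a quadrupole time-of-flight mass spectrometer working in positive and negative ionization mode, with dead and dwell volumes of 40 μL and 900 μL. Data were acquired over 3 months. Retention time was read from computationally picked adduct peaks after manual inspection of each.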

Compound | RP-LC retention time [s]
CN1CCN(C(=O)c2cc3n(n2)CC(C)(C(=O)NCc2ccc(F)cc2)N(C)C3=O)CC1 (stereo not given) | 576
CCn1c(N2CCCC(C(=O)NCC3CCN(Cc4cccc(F)c4)CC3)C2)cc(=O)n(C)c1=O (stereo not given) | 635
O=C(NC1CCN(c2ccc(F)cc2)C1=O)c1ccc(F)c(Cl)c1 (stereo not given) | 877
COc1ccc(-c2cnn3c(C)cc(C)nc23)cc1S(=O)(=O)NCCN1CCCC(C)C1 (stereo not given) | 657
CCCCNC(=O)C1CCCN(c2cc(=O)n(C)c(=O)n2CC)C1 (stereo not given) | 759
Fc1cccc(CSc2ccc(-n3ccnc3)nn2)c1 | 604
O=C(C1CCOC1)N1CCC2(CC1)NCCc1c2[nH]c2ccccc12 (stereo not given) | 608
O=C(Nc1nnc(C2CC(=O)N(c3ccc(F)cc3)C2)o1)c1ccccc1 (stereo not given) | 711
O=C(NCc1ccc2c(c1)OCO2)c1nc2ccccn2c1-c1ccsc1 | 787
Cn1c(=O)c2cc(C(=O)NCc3cccc(C(F)(F)F)c3)nn2c2ccccc21 | 945
CC12NC(Cc3ccccc31)c1ccccc12 (stereo not given) | 670
CCOc1ccc(Cn2c(=O)c3sccc3n(Cc3nc(-c4cccc(C)c4)no3)c2=O)cc1 | 1180
Cc1ccc(-c2nnc(-c3nn(C)c4c3CN(S(=O)(=O)c3cc(F)ccc3C)CC4)o2)cc1 | 1050
COc1cc(NC(=O)Cn2nc3nc(N4CCCC4)ccn3c2=O)cc(OC)c1 | 643
Cc1sc(C)c(S(=O)(=O)N2CCC3(CC2)OCCO3)c1-c1cc(C(F)(F)F)on1 | 1110
COc1ccc(-n2nc(C(=O)N3CCCCC3c3cccnc3)c(=O)n(C)c2=O)cc1 (stereo not given) | 638
CC1Oc2ccc(S(=O)(=O)N3CCC(C(=O)Nc4ccc(F)c(Cl)c4)CC3)cc2NC1=O (stereo not given) | 902
Cc1cccc(N(C)C(=O)Cn2nc3n(c2=O)CCCC3)c1 | 669
CC1=C(c2ccccc2)S(=O)(=O)N=C1N1CCC(NC(=O)C2CCOC2)CC1 (stereo not given) | 650
O=C(Nc1cc(C(F)(F)F)ccc1Cl)c1ccc(S(=O)(=O)N2CCCCC2)cc1 | 1080
Cc1cccn2cc(-c3cccc(S(=O)(=O)N4CCCCCC4)c3)nc12 | 692
COc1ccc(CC(C)(O)CNC(=O)Nc2cccs2)cc1 (stereo not given) | 699
Cc1ccc(F)c(NS(=O)(=O)c2cn(C(C)C)c3ncccc23)c1 | 912

Compound | RP-LC retention time [s]
O=C(Nc1ccccc1F)C1CCc2nc(N3CCCCC3)ncc2C1 (stereo not given) | 772
Cc1ccc(Cl)cc1N1CCN(c2cc(C(=O)O)c3cc(NC(=O)C(C)C)ccc3n2)CC1 | 746
CC(=O)N1CCc2cc(C(=O)NC(C)C)ccc21 | 644
COCCN1C(=O)c2cccn2CC1CNC(=O)Nc1ccc2c(c1)OCCO2 (stereo not given) | 663
O=C(NCC1CCCCC1)C1(CCO)CCN(c2ncccn2)C1 (stereo not given) | 629
Cc1ccc(C)c(N2CCN(Cc3nc(-c4ccc(N5CCCCC5)nc4)no3)CC2)c1 | 1160
Cc1cc(F)ccc1NC(=O)C1CCCN1S(=O)(=O)c1cc2c(cc1Cl)NC(=O)CO2 (stereo not given) | 745
CC1Oc2ccc(S(=O)(=O)N3CCC(C(=O)NCc4ccc(Cl)cc4)CC3)cc2NC1=O (stereo not given) | 846
O=C(CSc1nnc(-c2cccnc2)o1)Nc1c(Cl)cccc1Cl | 654
Cc1ccccc1Nc1c(-c2ccc3c(c2)OCO3)nc2cnccn12 | 860
COc1cccc(CNC(=O)Cn2cnc3onc(C)c3c2=O)c1 | 708
O=C(Nc1ccccc1)c1cn(CC2CCCO2)cc2c(=O)n(-c3ccccc3)nc1-2 (stereo not given) | 993
Cc1cc(OCC(=O)Nc2ccc(Br)cc2F)nc(N2CCCCC2)n1 | 666
COc1ccc(Br)c2c1-c1nc(NC(=O)c3ccc(F)cc3)sc1C2 | 1170
CC1CCN(C(=O)CN2C(=O)CCCc3cc(S(=O)(=O)N4CCC(C)CC4)ccc32)CC1 | 987
O=C(Cc1ccsc1)NC1CCN(c2ccc(=O)n(CCOc3ccccc3)n2)C1 (stereo not given) | 750
CCN(C(=O)Cc1ccc(OC)cc1)c1nc(-c2ccccc2)cs1 | 1260
CCOc1ccc(NC(=O)N2CCC3(CC2)NC(=O)c2ccc(Cl)cc2N3C)cc1 | 904
Cc1cc(C)cc(NC(=O)Cn2ncc3c(c2=O)N(CC2CC2)C(=O)CS3)c1 | 883
O=S(=O)(c1cccc(Br)c1)N1CCc2nc(-c3ccc(F)cc3)ncc2C1 | 1160
Cc1ccc(CC(=O)N2CCc3cc(-c4csc(C)n4)ccc32)cc1 | 1070
COC[C@@H]1CN(c2cnccn2)C[C@H]1C(=O)NCc1cc(C)nn1C | 563
Cn1cc(CCNS(=O)(=O)c2cccc3nsnc23)c2cccnc21 | 671

Compound | RP-LC retention time [s]
CCc1ccc(S(=O)(=O)N2CCC3(CC2)NCCN=C3NCc2ccccc2OC)cc1 | 779
O=C(CCc1ccc2nc(-c3ccccc3)[nH]c2c1)N1CCCCCC1 | 642
CCOc1cccc(CN2C[C@@H]3C(=O)N(CCN4CCc5ccccc5C4)C(=O)[C@@H]3C2)c1 | 622
Cc1cc(NC(=O)CN2C(=O)C3CCCCN3c3ccc(C(=O)N4CCCC4)cc32)no1 (stereo not given) | 738
COc1ncccc1CNC(=O)CCc1c(C)noc1C | 556
Cc1cc(-c2nnc(NC(=O)NCc3ccc(Cl)cc3)o2)c(C)o1 | 853
COc1ccc(CC(=O)NCc2c(C)nc3sc(C)nn23)cc1Cl | 629
Cn1c(=O)c(-c2ccc(C(=O)NCCCN3CCCC3)cc2)nc2ccccc21 | 616
CCc1cc(=O)n(CC(=O)Nc2cccc(F)c2)c(N)n1 | 613
O=C(Cn1c(=O)c2cc(-c3ccco3)nn2c2ncccc21)Nc1ccc(F)cc1 | 814
CCn1cc(CN2C[C@@H](COC)[C@H](c3nc(C)no3)C2)c2ccccc21 | 676
CCc1ccc(OCC(=O)Nc2cnn(CC)c(=O)c2N2CCCCC2)cc1 | 1240
O=C(Cc1ccc(Cl)cc1)Nc1nc(-c2ccccc2)cs1 | 1020
Cc1nccn1C1CN(S(=O)(=O)c2cccc(F)c2)C1 | 604
CC(C)NC(=O)c1ccc(OCC2CCCN(C(=O)c3ccccc3)C2)cc1 (stereo not given) | 825
COc1ccc(NC(=O)c2cc(C)n3nc(-c4ccco4)cc3n2)cc1Cl | 1110
CCc1nc2ccccc2c(=O)n1Cc1noc(-c2cccc(N(C)C)c2)n1 | 998
CCCOc1ccc(CN(C(=O)Cc2coc3ccc(C)cc23)C2CCS(=O)(=O)C2)cc1 (stereo not given) | 1130
Cc1ccc2[nH]cc(CCNC(=O)CCc3ccccc3)c2c1 | 880
CCc1ccc(CNC(=O)C2CCCN(C(=O)c3[nH]c(C)c(C(=O)OC(C)C)c3C)C2)cc1 (stereo not given) | 959
CCc1nn(CC(=O)N2CCN(c3ncccn3)CC2)c(=O)c2cc3sccc3n12 | 730
CCOCCCNC(=O)c1c(-c2cccc(Br)c2)noc1C | 869
CCc1nc2oc3cc(OC)ccc3c(=O)c2c(=O)n1-c1ccc(C)cc1 | 809

Compound | RP-LC retention time [s]
Cc1ccc2c(=O)c(C(=O)Nc3cccc(F)c3)c[nH]c2n1 | 770
O=C(NCc1cccs1)c1cccc2cnccc12 | 589
COc1ccc(-c2nnc(-c3ccc(OC)c(S(=O)(=O)N4CCCCC4)c3)o2)cc1OC | 922
O=C(Nc1ccccc1Br)C1CCCN(C(=O)c2ccccc2F)C1 (stereo not given) | 860
Cc1cc(C)cc(NC(=O)Cn2nc(N3CCCC(C)C3)c3ccccc3c2=O)c1 (stereo not given) | 1240
CCN(CC)C(=O)Cn1c(Cc2ccc(Cl)cc2)nc2ccccc21 | 693
CCC1CN(C(=O)N2CCC(C(=O)N3CCN(C(=O)c4ccco4)CC3)CC2)c2ccccc2O1 (stereo not given) | 751
Cc1ccc(-c2nc3cnccn3c2NCCC(=O)NC(C)C)cc1 | 618
O=S(=O)(c1ccc(Cl)cc1)N1CCC(c2nc(-c3cccnc3)no2)CC1 | 961
CSc1ccccc1C(=O)NCC1CN(c2ccccc2)C(=O)O1 (stereo not given) | 712
Cc1ccc(NC(=O)Cn2ccc3ccc(-c4nnc(C)o4)cc32)cc1 | 824
c1ccc(C2(c3ccccc3)CC2C2=NCCN2)cc1 (stereo not given) | 732
CNC(=O)C1CN(C(=O)c2cccc(Cl)c2)CC12CCCC2 (stereo not given) | 726
O=C(NCc1ccc(Br)cc1)C1CCCN(c2ncc(-c3ccc(F)cc3)cn2)C1 (stereo not given) | 1120
CC(C)NC(=O)N1CCCC1c1nc(-c2cccc(C(F)(F)F)c2)no1 (stereo not given) | 902
O=C(C1CCCCC1)N1CCC(F)(C(=O)NC2CC2)CC1 | 637
CC(C)(C)CC(=O)NC1CCN(c2ccc(F)cc2)C1=O (stereo not given) | 755
O=C(Cn1c(=O)oc2ccccc21)NCC12CCCC=C1NC(=O)CC2 (stereo not given) | 678
Cc1ccc(NC(=O)N2CCC(CCN)CC2)cc1 | 589
CCOC(=O)CNC(=O)N1CCCCCC1c1cccc(C)c1 (stereo not given) | 931
Cc1c(S(=O)(=O)NCC(c2cccnc2)c2cn(C)c3ccccc23)cnn1C(F)F (stereo not given) | 698

— the METLIN SMRT retention time set (Domingo-Almenara et al. 2019)
